pIC50: −log10 of the molar value.
What was measured:
Type in all cases: cell-based
[1] = tested on: replicating M. tuberculosis H37Rv; assay: microbe, parasite or virus in culture; details: Mycobacterium tuberculosis, H37RV, three independent experiments in triplicate, read-out: TB Growth Inhibition Activity, IC90 Replicating_logarithmic (converted)
[2] = Cytotoxicity against Hek 293; details: human, HEK293 cells, 26.0 uM highest concentration measured
[3] = Cytotoxicity against HeLa; details: human, HeLa cells, 26.0 uM highest concentration measured
[4] = tested on: carbon-starved M. tuberculosis H37Rv; assay: Non-replicating IC90 determination by luciferase (carbon-starved cells); details: Mycobacterium tuberculosis, H37RV; non-replicating carbon-starved Mtb, luciferase; three independent experiments in triplicate; read-out: TB Growth Inhibition Activity, IC90 Non-replicating_luciferase
[5] = Cytotoxicity against HepG2; details: human, HepG2 cells, 26.0 uM highest concentration measured

SMILES: CS(=O)(=O)c1cccc(CSc2nnc(-c3ccccc3)o2)c1
- IC90 [1]: 250 µM
- pIC50 [2]: < 4.59
- pIC50 [3]: < 4.59
- IC90 [4]: 250 µM
- pIC50 [5]: < 4.59

SMILES: Fc1cccc(-c2nnc(SCc3ccccc3)o2)c1
- IC90 [1]: 125 µM
- pIC50 [2]: < 4.59
- pIC50 [3]: < 4.59
- IC90 [4]: 1 µM
- pIC50 [5]: < 4.59

SMILES: Clc1ccccc1CSc1nnc(-c2ccccc2)o1
- IC90 [1]: 250 µM
- pIC50 [2]: < 4.59
- pIC50 [3]: < 4.59
- IC90 [4]: 2 µM
- pIC50 [5]: < 4.59

SMILES: Clc1ccccc1-c1nnc(SCc2ccccc2)o1
- IC90 [1]: 250 µM
- pIC50 [2]: < 4.59
- pIC50 [3]: < 4.59
- IC90 [4]: 32 µM
- pIC50 [5]: < 4.59

SMILES: c1ccc(CSc2nnc(Cc3ccccc3)o2)cc1
- IC90 [1]: 500 µM
- pIC50 [2]: < 4.59
- pIC50 [3]: < 4.59
- IC90 [4]: 4 µM
- pIC50 [5]: < 4.59

SMILES: c1ccc(CCc2nnc(-c3ccccc3)o2)cc1
- IC90 [1]: 250 µM
- pIC50 [2]: < 4.59
- pIC50 [3]: < 4.59
- IC90 [4]: 0.5 µM
- pIC50 [5]: < 4.59

SMILES: c1ccc(CSc2nnc(C3CCCC3)o2)cc1
- IC90 [1]: 125 µM
- pIC50 [2]: < 4.59
- pIC50 [3]: < 4.59
- IC90 [4]: 0.5 µM
- pIC50 [5]: < 4.59

SMILES: FC(F)(F)Oc1ccccc1CSc1nnc(-c2ccccc2)o1
- IC90 [1]: 500 µM
- pIC50 [2]: < 4.59
- pIC50 [3]: < 4.59
- IC90 [4]: 4 µM
- pIC50 [5]: < 4.59

SMILES: FC1(F)CN(CCSc2nnc(-c3ccccc3)o2)C1
- IC90 [1]: 250 µM
- pIC50 [2]: < 4.59
- pIC50 [3]: < 4.59
- IC90 [4]: 1 µM
- pIC50 [5]: < 4.59

SMILES: Fc1ccc(-c2nnc(SCc3cn(-c4ccccc4)nn3)o2)cc1
- IC90 [1]: > 62 µM
- pIC50 [2]: < 4.59
- pIC50 [3]: < 4.59
- IC90 [4]: 2 µM
- pIC50 [5]: < 4.59

SMILES: c1ccc(CSc2nnc(C3CCCCC3)o2)cc1
- IC90 [1]: 125 µM
- pIC50 [2]: < 4.59
- pIC50 [3]: < 4.59
- IC90 [4]: 1 µM
- pIC50 [5]: < 4.59

SMILES: Fc1ccccc1CSc1nnc(-c2ccccc2)o1
- IC90 [1]: 250 µM
- pIC50 [2]: < 4.59
- pIC50 [3]: < 4.59
- IC90 [4]: 1 µM
- pIC50 [5]: < 4.59

SMILES: Fc1cccc(CSc2nnc(-c3ccccc3)o2)c1
- IC90 [1]: 250 µM
- pIC50 [2]: < 4.59
- pIC50 [3]: < 4.59
- IC90 [4]: 2 µM
- pIC50 [5]: < 4.59

SMILES: c1ccc(CSc2nnc(-c3ccccc3)s2)cc1
- IC90 [1]: 62 µM
- pIC50 [2]: < 4.59
- pIC50 [3]: < 4.59
- IC90 [4]: 8 µM
- pIC50 [5]: < 4.59

SMILES: Fc1ccc(Cn2cc(CSc3nnc(C4CCC4)o3)nn2)cc1
- IC90 [1]: > 62 µM
- pIC50 [2]: < 4.59
- pIC50 [3]: < 4.59
- IC90 [4]: 8 µM
- pIC50 [5]: < 4.59

SMILES: Fc1ccc(Cn2cc(CSc3nnc(-c4ccc(Cl)cc4)o3)nn2)cc1
- IC90 [1]: > 62 µM
- pIC50 [2]: < 4.59
- pIC50 [3]: < 4.59
- IC90 [4]: 2 µM
- pIC50 [5]: < 4.59

SMILES: c1ccc(Cn2cc(CSc3nnc(C4CCCC4)o3)nn2)cc1
- IC90 [1]: 62 µM
- pIC50 [2]: < 4.59
- pIC50 [3]: < 4.59
- IC90 [4]: 31 µM
- pIC50 [5]: < 4.59

SMILES: Fc1ccc(-c2nnc(SCc3ccccc3)o2)cc1
- IC90 [1]: 125 µM
- pIC50 [2]: < 4.59
- pIC50 [3]: < 4.59
- IC90 [4]: 2 µM
- pIC50 [5]: < 4.59

SMILES: Clc1ccc(-c2nnc(SCc3ccccc3)o2)cc1
- IC90 [1]: 500 µM
- pIC50 [2]: < 4.59
- pIC50 [3]: < 4.59
- IC90 [4]: 4 µM
- pIC50 [5]: < 4.59

SMILES: Cc1ccccc1CSc1nnc(-c2ccccc2)o1
- IC90 [1]: 250 µM
- pIC50 [2]: < 4.59
- pIC50 [3]: < 4.59
- IC90 [4]: 8 µM
- pIC50 [5]: < 4.59

SMILES: CN(Cc1ccccc1)c1nnc(-c2ccccc2)o1
- IC90 [1]: 250 µM
- pIC50 [2]: < 4.59
- pIC50 [3]: < 4.59
- IC90 [4]: 0.5 µM
- pIC50 [5]: < 4.59

SMILES: c1ccc(-c2nnc(SCc3ccncc3)o2)cc1 [drawing 144]
- IC90 [1]: 250 µM
- pIC50 [2]: < 4.59
- pIC50 [3]: < 4.59
- IC90 [4]: 31 µM
- pIC50 [5]: < 4.59

SMILES: COc1cccc(-c2nnc(SCc3ccccc3)o2)c1
- IC90 [1]: 250 µM
- pIC50 [2]: < 4.59
- pIC50 [3]: < 4.59
- IC90 [4]: 8 µM
- pIC50 [5]: < 4.59

SMILES: Fc1ccc(Cn2cc(CSc3nnc(-c4ccc(F)cc4)o3)nn2)cc1
- IC90 [1]: > 62 µM
- pIC50 [2]: < 4.59
- pIC50 [3]: < 4.59
- IC90 [4]: 4 µM
- pIC50 [5]: < 4.59

SMILES: c1ccc(Cn2cc(CSc3nnc(-c4ccccc4)o3)nn2)cc1
- IC90 [1]: > 62 µM
- pIC50 [2]: < 4.59
- pIC50 [3]: < 4.59
- IC90 [4]: 4 µM
- pIC50 [5]: < 4.59

SMILES: c1ccc(-c2nnc(SCc3cscn3)o2)cc1
- IC90 [1]: 62 µM
- pIC50 [2]: < 4.59
- pIC50 [3]: < 4.59
- IC90 [4]: 4 µM
- pIC50 [5]: < 4.59

SMILES: Clc1ccc(-c2nnc(SCc3cn(Cc4ccccc4)nn3)o2)cc1 [drawing 156]
- IC90 [1]: > 62 µM
- pIC50 [2]: < 4.59
- pIC50 [3]: < 4.59
- IC90 [4]: 2 µM
- pIC50 [5]: < 4.59

SMILES: Clc1ccc(-c2nnc(SCc3cn(-c4ccccc4)nn3)o2)cc1 [drawing 164]
- IC90 [1]: > 62 µM
- pIC50 [2]: < 4.59
- pIC50 [3]: < 4.59
- IC90 [4]: 1 µM
- pIC50 [5]: < 4.59

SMILES: FC(F)(F)c1cccc(CSc2nnc(-c3ccccc3)o2)c1
- IC90 [1]: 250 µM
- pIC50 [2]: < 4.59
- pIC50 [3]: < 4.59
- IC90 [4]: 4 µM
- pIC50 [5]: < 4.59

SMILES: c1ccc(CSc2nnc(-c3cccnc3)o2)cc1
- IC90 [1]: 125 µM
- pIC50 [2]: < 4.59
- pIC50 [3]: < 4.59
- IC90 [4]: 2 µM
- pIC50 [5]: < 4.59

SMILES: COc1ccccc1-c1nnc(SCc2ccccc2)o1
- IC90 [1]: 250 µM
- pIC50 [2]: < 4.59
- pIC50 [3]: < 4.59
- IC90 [4]: 125 µM
- pIC50 [5]: < 4.59

SMILES: Clc1ccc(CSc2nnc(-c3ccccc3)o2)cc1
- pIC50 [2]: < 4.59
- pIC50 [3]: < 4.59
- IC90 [4]: 1 µM
- pIC50 [5]: < 4.59

SMILES: O=C(Cc1ccccc1)c1nnc(-c2ccccc2)o1
- pIC50 [2]: < 4.59
- pIC50 [3]: < 4.59
- IC90 [4]: 16 µM
- pIC50 [5]: < 4.59

SMILES: FC(F)(F)Oc1ccccc1-c1nnc(SCc2ccccc2)o1
- pIC50 [2]: < 4.59
- pIC50 [3]: < 4.59
- IC90 [4]: 62 µM
- pIC50 [5]: < 4.59

SMILES: COc1ccc(CSc2nnc(-c3ccccc3)o2)cc1
- pIC50 [2]: < 4.59
- pIC50 [3]: < 4.59
- IC90 [4]: 0.25 µM
- pIC50 [5]: < 4.59

SMILES: FC(F)(F)c1ccc(-c2nnc(SCc3ccccc3)o2)cc1
- pIC50 [2]: < 4.59
- pIC50 [3]: < 4.59
- IC90 [4]: 1 µM
- pIC50 [5]: < 4.59

SMILES: N#Cc1ccc(CSc2nnc(-c3ccccc3)o2)cc1
- pIC50 [2]: < 4.59
- pIC50 [3]: < 4.59
- IC90 [4]: 2 µM
- pIC50 [5]: < 4.59

SMILES: FC(F)(F)Oc1cccc(CSc2nnc(-c3ccccc3)o2)c1
- pIC50 [2]: < 4.59
- pIC50 [3]: < 4.59
- IC90 [4]: 2 µM
- pIC50 [5]: < 4.59

SMILES: FC(F)(F)CNCCSc1nnc(-c2ccccc2)o1
- pIC50 [2]: < 4.59
- pIC50 [3]: < 4.59
- IC90 [4]: 250 µM
- pIC50 [5]: < 4.59

SMILES: Cc1nnc(SCc2ccccc2)o1
- pIC50 [2]: < 4.59
- pIC50 [3]: < 4.59
- IC90 [4]: 31 µM
- pIC50 [5]: < 4.59

SMILES: c1ccc(CSc2nnc(-c3ccncc3)o2)cc1
- pIC50 [2]: < 4.59
- pIC50 [3]: < 4.59
- IC90 [4]: 31 µM
- pIC50 [5]: < 4.59

SMILES: c1ccc(-c2nnc(SCCN3CCOCC3)o2)cc1
- pIC50 [2]: < 4.59
- pIC50 [3]: < 4.59
- IC90 [4]: 250 µM
- pIC50 [5]: < 4.59

SMILES: Cc1ccccc1-c1nnc(SCc2ccccc2)o1
- pIC50 [2]: < 4.59
- pIC50 [3]: < 4.59
- IC90 [4]: 16 µM
- pIC50 [5]: < 4.59

SMILES: CC1(O)CN(CCSc2nnc(-c3ccccc3)o2)C1
- pIC50 [2]: < 4.59
- pIC50 [3]: < 4.59
- IC90 [4]: 125 µM
- pIC50 [5]: < 4.59
